± gives the expanded uncertainty stated by the source.
Columns and labels:
[1] = refractive index (other wavelength) (dimensionless); details: 101 kPa, Liquid, Wavelength=632.8 nm, ellipsometry
[2] = Crystal; DTA
[3] = refractive index (Na D-line) (dimensionless); details: 101.33 kPa, Liquid, ellipsometry

| SMILES | refractive index ([1]; 1103 K) | refractive index ([1]; 1133 K) | refractive index ([1]; 1153 K) | refractive index ([1]; 1173 K) | refractive index ([1]; 1193 K) | Normal melting temperature [2] | refractive index ([1]; 1023 K) | refractive index ([1]; 1073 K) | refractive index ([1]; 1093 K) | refractive index ([1]; 1113 K) | refractive index ([1]; 1123 K) | other results |
| --- | --- | --- | --- | --- | --- | --- | --- | --- | --- | --- | --- | --- |
| [Cl][Ce]([Cl])[Cl] [cerium trichloride] | 1.697 ± 0.001 | 1.691 ± 0.001 | 1.688 ± 0.001 | 1.685 ± 0.001 | 1.681 ± 0.001 | 822 ± 4 °C |  |  |  |  |  | refractive index ([1]; 1213 K): 1.678 ± 0.001; refractive index ([1]; 1233 K): 1.674 ± 0.001 |
| [Cl-].[Cs+] [cesium chloride] |  | 1.419 ± 0.001 | 1.415 ± 0.001 | 1.411 ± 0.001 |  |  | 1.439 ± 0.001 | 1.43 ± 0.001 | 1.426 ± 0.001 | 1.423 ± 0.001 |  | refractive index ([1]; 1033 K): 1.438 ± 0.001; refractive index ([1]; 1053 K): 1.434 ± 0.001 |
| [Cl-].[Cl-].[Cl-].[Gd+3] [gadolinium(III) chloride] |  |  |  | 1.662 ± 0.001 |  | 602 ± 4 °C | 1.68 ± 0.001 | 1.675 ± 0.001 |  |  | 1.664 ± 0.001 | refractive index ([1]; 923 K): 1.7 ± 0.002; refractive index ([1]; 973 K): 1.685 ± 0.001; refractive index ([3]; 923 K): 1.7 ± 0.002; refractive index ([3]; 973 K): 1.685 ± 0.001; refractive index ([3]; 1023 K): 1.68 ± 0.001; refractive index ([3]; 1073 K): 1.675 ± 0.001; refractive index ([3]; 1123 K): 1.664 ± 0.001; refractive index ([3]; 1173 K): 1.662 ± 0.001 |
| [Cl][Nd]([Cl])[Cl] [neodymium(III) chloride] |  | 1.692 ± 0.001 | 1.689 ± 0.001 | 1.686 ± 0.001 | 1.683 ± 0.001 | 760 ± 4 °C |  | 1.701 ± 0.001 | 1.698 ± 0.001 | 1.695 ± 0.001 |  | refractive index ([1]; 1053 K): 1.704 ± 0.001; refractive index ([1]; 1213 K): 1.68 ± 0.001 |
| [Cl-].[K+] [potassium chloride] | 1.388 ± 0.001 | 1.383 ± 0.001 | 1.38 ± 0.001 | 1.377 ± 0.001 | 1.374 ± 0.001 |  |  | 1.393 ± 0.001 | 1.39 ± 0.001 | 1.386 ± 0.001 | 1.385 ± 0.001 |  |
| [Cl][Sm]([Cl])[Cl] [samarium chloride] | 1.684 ± 0.001 |  | 1.674 ± 0.001 | 1.672 ± 0.001 |  | 678 ± 4 °C | 1.701 ± 0.001 | 1.691 ± 0.001 |  |  | 1.68 ± 0.001 | refractive index ([1]; 973 K): 1.712 ± 0.001; refractive index ([1]; 1003 K): 1.705 ± 0.001 |
| [Cl-].[Na+] [sodium chloride] | 1.407 ± 0.02 | 1.404 ± 0.02 | 1.402 ± 0.02 | 1.399 ± 0.02 |  |  |  |  | 1.408 ± 0.02 | 1.406 ± 0.02 | 1.405 ± 0.02 | refractive index ([1]; 1083 K): 1.41 ± 0.02 |
